Measurements: US12539292B2, “BRM targeting compounds and associated methods of use” (Arvinas Operations, Inc., priority 2018, dated 2026)
Where two headings read alike, the source gives them in different places.

Target: T1, BRM (Homo sapiens, UniProt P51531)
T1 construct: In-Cell Western Screen of BRM Degradation in SW1573 Cells; endogenous in cells; host or cells: SW1573
Experiment: In-cell Western screen of BRM degradation in SW1573 cells (Dmax and DC50)
Format: cell-based
Outline: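 BRM levels were read by LI-COR in-cell Western after two-channel (800/680 nm) immunostaining of fixed, Triton-permeabilised SW1573 cells.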

[1] = BRM degradation, SW1573 cells, read-out: DC50
[2] = BRM degradation, SW1573 cells, tested at the top concentration of between 0.3 and 10 μM, read-out: Dmax (%) (% degraded)
[3] = BRM degradation, SW1573 cells, when tested at the top concentration of between 0.3 and 10 μM, read-out: Dmax (%) (% degraded)

T1 sequence (P51531 whole entry): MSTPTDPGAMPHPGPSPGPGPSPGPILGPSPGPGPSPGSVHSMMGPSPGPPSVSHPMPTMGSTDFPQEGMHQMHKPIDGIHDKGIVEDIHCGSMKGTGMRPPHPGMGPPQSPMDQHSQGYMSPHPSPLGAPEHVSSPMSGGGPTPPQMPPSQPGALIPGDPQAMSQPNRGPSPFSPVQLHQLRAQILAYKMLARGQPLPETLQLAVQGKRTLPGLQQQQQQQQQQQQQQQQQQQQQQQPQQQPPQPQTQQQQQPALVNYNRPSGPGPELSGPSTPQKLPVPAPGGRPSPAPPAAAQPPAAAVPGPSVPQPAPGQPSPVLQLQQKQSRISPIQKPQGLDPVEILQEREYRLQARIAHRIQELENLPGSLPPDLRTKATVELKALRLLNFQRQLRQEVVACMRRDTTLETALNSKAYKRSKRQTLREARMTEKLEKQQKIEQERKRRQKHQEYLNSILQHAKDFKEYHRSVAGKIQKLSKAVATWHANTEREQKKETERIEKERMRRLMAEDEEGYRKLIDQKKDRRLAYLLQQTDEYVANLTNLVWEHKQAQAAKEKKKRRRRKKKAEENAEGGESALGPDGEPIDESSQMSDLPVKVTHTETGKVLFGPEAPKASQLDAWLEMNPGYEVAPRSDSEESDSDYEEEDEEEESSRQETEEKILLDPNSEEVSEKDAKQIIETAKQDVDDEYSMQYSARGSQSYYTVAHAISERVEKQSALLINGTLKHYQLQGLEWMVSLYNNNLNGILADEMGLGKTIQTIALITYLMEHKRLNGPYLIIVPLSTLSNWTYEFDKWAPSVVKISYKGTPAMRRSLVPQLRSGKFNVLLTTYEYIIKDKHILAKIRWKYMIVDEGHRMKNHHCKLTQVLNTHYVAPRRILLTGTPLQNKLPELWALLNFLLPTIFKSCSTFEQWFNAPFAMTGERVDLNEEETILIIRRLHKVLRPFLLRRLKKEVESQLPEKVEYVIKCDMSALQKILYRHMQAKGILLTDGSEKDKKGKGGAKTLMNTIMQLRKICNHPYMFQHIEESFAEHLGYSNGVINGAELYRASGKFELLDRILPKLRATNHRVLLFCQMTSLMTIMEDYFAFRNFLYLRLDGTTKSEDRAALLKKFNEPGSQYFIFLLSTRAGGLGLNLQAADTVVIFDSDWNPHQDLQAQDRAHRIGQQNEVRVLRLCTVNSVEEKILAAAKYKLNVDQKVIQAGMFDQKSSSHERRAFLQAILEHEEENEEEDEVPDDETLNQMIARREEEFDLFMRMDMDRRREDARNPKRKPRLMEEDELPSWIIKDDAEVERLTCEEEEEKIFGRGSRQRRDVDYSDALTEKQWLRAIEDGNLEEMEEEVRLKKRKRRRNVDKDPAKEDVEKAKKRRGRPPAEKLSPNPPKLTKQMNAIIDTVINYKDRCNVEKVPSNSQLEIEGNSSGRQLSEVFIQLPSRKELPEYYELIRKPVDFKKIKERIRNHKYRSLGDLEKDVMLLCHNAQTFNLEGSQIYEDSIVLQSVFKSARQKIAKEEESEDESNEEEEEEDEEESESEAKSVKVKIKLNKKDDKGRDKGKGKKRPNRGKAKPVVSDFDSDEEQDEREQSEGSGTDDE

Row | Compound | DC50 [1] [nM] | Dmax [2] [%] | further results
1 | Cc1ncsc1-c1ccc([C@H](C)NC(=O)[C@@H]2C[C@@H](O)CN2C(=O)[C@H](c2cc(OCCn3cc(C(C)n4cc(-c5cc(-c6ccccc6O)nnc5N)cn4)ccc3=O)no2)C(C)C)cc1 (stereo partly drawn) [compound 157, (2S,4R)-1-((2S)-2-(3-(2-(5-(1-(4-(3-amino-6-(2-hydroxyphenyl)pyridazin-4-yl)-1H-pyrazol-1-yl)ethyl)-2-oxopyridin-1(2H)-yl)ethoxy)isoxazol-5-yl)-3-methylbutanoyl)-4-hydroxy-N-((S)-1-(4-(4-methylthiazol-5-yl)phenyl)ethyl)pyrrolidine-2-carboxamide] | 10 to 30 | > 75 | 
2 | Cc1ncsc1-c1ccc(CNC(=O)[C@@H]2C[C@@H](O)CN2C(=O)[C@H](C(C)C)N2Cc3ccccc3C2=O)c(OCCOCCOCCn2cc(-c3cc(-c4ccccc4O)nnc3N)cn2)c1 [compound 21, (2S,4R)-N-(2-(2-(2-(2-(4-(3-amino-6-(2-hydroxyphenyl)pyridazin-4-yl)-1H-pyrazol-1-yl)ethoxy)ethoxy)ethoxy)-4-(4-methylthiazol-5-yl)benzyl)-4-hydroxy-1-((S)-3-methyl-2-(1-oxoisoindolin-2-yl)butanoyl)pyrrolidine-2-carboxamide] |  |  | Dmax [3]: < 50%
3 | Cc1ncsc1-c1ccc([C@H](C)NC(=O)[C@@H]2C[C@@H](O)CN2C(=O)[C@@H](NC(=O)CN2CCC(CN3CCC(OC4CC(Oc5cc(N6C7CC[C@@H]6CN(c6cc(-c8ccccc8O)nnc6N)C7)ccn5)C4)CC3)CC2)C(C)(C)C)cc1 (stereo partly drawn) [compound 512, (2S,4R)-1-((2S)-2-(2-(4-((4-((1r,3r)-3-((4-(3-(3-amino-6-(2-hydroxyphenyl)pyridazin-4-yl)-3,8-diazabicyclo[3.2.1]octan-8-yl)pyridin-2-yl)oxy)cyclobutoxy)piperidin-1-yl)methyl)piperidin-1-yl)acetamido)-3,3-dimethylbutanoyl)-4-hydroxy-N-((S)-1-(4-(4-methylthiazol-5-yl)phenyl)ethyl)pyrrolidine-2-carboxamide] |  |  | BRM Dmax (%) (% degraded, when tested at the top concentration of between 0.3 and 10 μM): A (A > 75); DC50 (BRM degradation, read-out: BRM DC50): < 2.5 nM
4 | Cc1ncoc1-c1ccc([C@H](C)NC(=O)[C@@H]2C[C@@H](O)CN2C(=O)[C@@H](c2cc(OCCN3CCN(CCOc4cc(N5C6CCC5CN(c5cc(-c7ccccc7O)nnc5N)C6)ccn4)CC3)no2)C(C)C)cc1 [compound 300, (2S,4R)-1-((2R)-2-(3-(2-(4-(2-((4-(3-(3-amino-6-(2-hydroxyphenyl)pyridazin-4-yl)-3,8-diazabicyclo[3.2.1]octan-8-yl)pyridin-2-yl)oxy)ethyl)piperazin-1-yl)ethoxy)isoxazol-5-yl)-3-methylbutanoyl)-4-hydroxy-N-((S)-1-(4-(4-methyloxazol-5-yl)phenyl)ethyl)pyrrolidine-2-carboxamide] | < 2.5 | > 75 | 
5 | Cc1ncsc1-c1ccc([C@H](C)NC(=O)[C@@H]2C[C@@H](O)CN2C(=O)[C@H](c2cc(OCC(F)(F)CN3CCC(O[C@H]4C[C@H](Oc5cc(N6C7CCC6CN(c6cc(-c8ccccc8O)nnc6N)C7)ccn5)C4)CC3)no2)C(C)C)cn1 [compound 421, (2S,4R)-1-((2S)-2-(3-(3-(4-((1r,3S)-3-((4-(3-(3-amino-6-(2-hydroxyphenyl)pyridazin-4-yl)-3,8-diazabicyclo[3.2.1]octan-8-yl)pyridin-2-yl)oxy)cyclobutoxy)piperidin-1-yl)-2,2-difluoropropoxy)isoxazol-5-yl)-3-methylbutanoyl)-4-hydroxy-N-((S)-1-(6-(4-methylthiazol-5-yl)pyridin-3-yl)ethyl)pyrrolidine-2-carboxamide] |  |  | DC50 (degradation of BRM, read-out: BRM DC50): > 30 nM
6 | Cc1nccn1-c1ccc([C@H](C)NC(=O)[C@@H]2C[C@@H](O)CN2C(=O)[C@@H](c2cc(N3CCC(CN4CCC(O[C@H]5C[C@H](Oc6cc(N7C8CCC7CN(c7cc(-c9ccccc9O)nnc7N)C8)ccn6)C5)CC4)CC3)no2)C(C)C)cc1 [compound 606, (2S,4R)-1-((2S)-2-(3-(4-((4-((1r,3r)-3-((4-(3-(3-amino-6-(2-hydroxyphenyl)pyridazin-4-yl)-3,8-diazabicyclo[3.2.1]octan-8-yl)pyridin-2-yl)oxy)cyclobutoxy)piperidin-1-yl)methyl)piperidin-1-yl)isoxazol-5-yl)-3-methylbutanoyl)-4-hydroxy-N-((S)-1-(4-(2-methyl-1H-imidazol-1-yl)phenyl)ethyl)pyrrolidine-2-carboxamide] |  |  | Dmax (BRM degradation, SW1573 cells, Table 2D, read-out: **Dmax (%) (% degraded)): > 75%; DC50 (BRM degradation, SW1573 cells, Table 2D, read-out: *DC50): 10 to 30 nM
7 | Cc1nccn1-c1ccc([C@H](C)NC(=O)[C@@H]2C[C@@H](O)CN2C(=O)[C@@H](c2cc(OC/C=C/c3ccc(O[C@H]4C[C@H](Oc5cc(N6C7CCC6CN(c6cc(-c8ccccc8O)nnc6N)C7)ccn5)C4)cn3)no2)C(C)C)cc1 [compound 277, (2S,4R)-1-((2R)-2-(3-(((E)-3-(5-((1r,3R)-3-((4-(3-(3-amino-6-(2-hydroxyphenyl)pyridazin-4-yl)-3,8-diazabicyclo[3.2.1]octan-8-yl)pyridin-2-yl)oxy)cyclobutoxy)pyridin-2-yl)allyl)oxy)isoxazol-5-yl)-3-methylbutanoyl)-4-hydroxy-N-((S)-1-(4-(2-methyl-1H-imidazol-1-yl)phenyl)ethyl)pyrrolidine-2-carboxamide] | < 2.5 | > 75 | 
8 | Cc1ncsc1-c1ccc([C@H](C)NC(=O)[C@@H]2C[C@@H](O)CN2C(=O)[C@H](c2cc(CCCN3CCN(CCOc4cc(N5C6CCC5CN(c5cc(-c7ccccc7O)nnc5N)C6)ccn4)CC3)no2)C(C)C)cc1 [compound 170, (2S,4R)-1-((2S)-2-(3-(3-(4-(2-((4-(3-(3-amino-6-(2-hydroxyphenyl)pyridazin-4-yl)-3,8-diazabicyclo[3.2.1]octan-8-yl)pyridin-2-yl)oxy)ethyl)piperazin-1-yl)propyl)isoxazol-5-yl)-3-methylbutanoyl)-4-hydroxy-N-((S)-1-(4-(4-methylthiazol-5-yl)phenyl)ethyl)pyrrolidine-2-carboxamide] | 2.5 to 10 | > 75 | 
9 | Cc1nccn1-c1ccc([C@H](C)NC(=O)[C@@H]2C[C@@H](O)CN2C(=O)[C@H](c2cc(OCCN3CCN(CCOc4cc(N5C6CCC5CN(c5cc(-c7ccccc7O)nnc5N)C6)ccn4)CC3)no2)C(C)C)cc1 [compound 75, (2S,4R)-1-((2S)-2-(3-(2-(4-(2-((4-(3-(3-amino-6-(2-hydroxyphenyl)pyridazin-4-yl)-3,8-diazabicyclo[3.2.1]octan-8-yl)pyridin-2-yl)oxy)ethyl)piperazin-1-yl)ethoxy)isoxazol-5-yl)-3-methylbutanoyl)-4-hydroxy-N-((S)-1-(4-(2-methyl-1H-imidazol-1-yl)phenyl)ethyl)pyrrolidine-2-carboxamide] | 10 to 30 |  | Dmax [3]: > 75%
10 | (2S,4R)-1-((2R)-2-(3-(2-(4-((1r,3R)- 3-((4-(3-(3-amino-6-(2- hydroxyphenyl)pyridazin-4-yl)-3,8- diazabicyclo[3.2.1]octan-8- yl)pyridin-2- yl)oxy)cyclobutoxy)piperidin-1- yl)ethoxy)isoxazol-5-yl)-3- methylbutanoyl)-4-hydroxy-N-(4-(4- methylthiazol-5- yl)benzyl)pyrrolidine-2-carboxamide [compound 146] | < 2.5 |  | Dmax (%) (% degraded) (BRM degradation, SW1573 cells, when tested at the top concentration of between 0.3 and 10 μM): A (A > 75)
11 | Cc1ncsc1-c1ccc([C@H](C)NC(=O)[C@@H]2C[C@@H](O)CN2C(=O)[C@@H](c2cc(OCCN3CCC(O[C@H]4C[C@H](Oc5cc(N6C7CCC6CN(c6cc(-c8ccccc8)nnc6N)C7)ccn5)C4)CC3)no2)C(C)C)cc1 [compound 537, (2S,4R)-1-((2R)-2-(3-(2-(4-((1r,3R)-3-((4-(3-(3-amino-6-phenylpyridazin-4-yl)-3,8-diazabicyclo[3.2.1]octan-8-yl)pyridin-2-yl)oxy)cyclobutoxy)piperidin-1-yl)ethoxy)isoxazol-5-yl)-3-methylbutanoyl)-4-hydroxy-N-((S)-1-(4-(4-methylthiazol-5-yl)phenyl)ethyl)pyrrolidine-2-carboxamide] |  |  | DC50 (BRM degradation, SW1573 cells, Table 2D): > 30 nM
12 | CC(C)[C@@H](C(=O)N1C[C@H](O)C[C@H]1C(=O)N[C@@H](C)c1ccc(-c2c(Cl)cnn2C)cc1)c1cc(OCCN2CCN(CCOc3cc(N4C5CCC4CN(c4cc(-c6ccccc6O)nnc4N)C5)ccn3)CC2)no1 [compound 283, (2S,4R)-1-((2R)-2-(3-(2-(4-(2-((4-(3-(3-amino-6-(2-hydroxyphenyl)pyridazin-4-yl)-3,8-diazabicyclo[3.2.1]octan-8-yl)pyridin-2-yl)oxy)ethyl)piperazin-1-yl)ethoxy)isoxazol-5-yl)-3-methylbutanoyl)-N-((S)-1-(4-(4-chloro-1-methyl-1H-pyrazol-5-yl)phenyl)ethyl)-4-hydroxypyrrolidine-2-carboxamide] | < 2.5 | > 75 | 
13 | Cc1ncsc1-c1ccc([C@H](C)NC(=O)[C@@H]2C[C@@H](O)CN2C(=O)[C@@H](c2cc(OCCN3CCN(C[C@H]4C[C@H](Oc5cc(N6C7CCC6CN(c6cc(-c8ccccc8O)nnc6N)C7)ccn5)C4)C[C@@H]3C)no2)C(C)C)cn1 [compound 296, (2S,4R)-1-((2R)-2-(3-(2-((2S)-4-(((1r,3S)-3-((4-(3-(3-amino-6-(2-hydroxyphenyl)pyridazin-4-yl)-3,8-diazabicyclo[3.2.1]octan-8-yl)pyridin-2-yl)oxy)cyclobutyl)methyl)-2-methylpiperazin-1-yl)ethoxy)isoxazol-5-yl)-3-methylbutanoyl)-4-hydroxy-N-((S)-1-(6-(4-methylthiazol-5-yl)pyridin-3-yl)ethyl)pyrrolidine-2-carboxamide] | < 2.5 | > 75 | 
